Data: the NIST ThermoML archive (doi:10.1016/j.jct.2016.03.026)
Numbers after ± are expanded uncertainties.

Assay: xn = mol fraction of the nth substance listed
Settings: 273.15 K, Fluid (supercritical or subcritical phases), x1 = 0.97; for mass density: Vibrating tube method; for speed of sound: Frequency=5 MHz, Pulse-echo method

O=C=O [carbon dioxide] + CO
Settings	mass density [kg/m3]	speed of sound [m/s]
5000 kPa	943.89 ± 0.8	–
5025 kPa	944.05 ± 0.8	–
5050 kPa	944.22 ± 0.8	–
5075 kPa	944.38 ± 0.8	–
5100 kPa	944.55 ± 0.8	–
5125 kPa	944.71 ± 0.8	–
5150 kPa	944.88 ± 0.8	–
5175 kPa	945.05 ± 0.8	–
5200 kPa	945.28 ± 0.8	–
5225 kPa	945.45 ± 0.8	–
5250 kPa	945.61 ± 0.8	–
5275 kPa	945.83 ± 0.8	–
5300 kPa	945.95 ± 0.8	–
5325 kPa	946.18 ± 0.8	–
5350 kPa	946.35 ± 0.8	–
5375 kPa	946.51 ± 0.8	–
5400 kPa	946.68 ± 0.8	–
5425 kPa	946.88 ± 0.8	–
5450 kPa	947.02 ± 0.8	–
5475 kPa	947.19 ± 0.8	–
5500 kPa	947.38 ± 0.8	–
5525 kPa	947.55 ± 0.8	–
5550 kPa	947.7 ± 0.8	–
5575 kPa	947.84 ± 0.8	–
5600 kPa	948 ± 0.8	–
5625 kPa	948.22 ± 0.8	–
5650 kPa	948.35 ± 0.8	–
5675 kPa	948.48 ± 0.8	–
5700 kPa	948.64 ± 0.8	–
5725 kPa	948.81 ± 0.8	–
5750 kPa	948.97 ± 0.8	–
5775 kPa	949.13 ± 0.8	–
5800 kPa	949.3 ± 0.8	–
5825 kPa	949.41 ± 0.8	–
5850 kPa	949.62 ± 0.8	–
5875 kPa	949.74 ± 0.8	–
5900 kPa	949.87 ± 0.8	–
5925 kPa	950.03 ± 0.8	–
5950 kPa	950.2 ± 0.8	–
5975 kPa	950.35 ± 0.8	–
6000 kPa	950.47 ± 0.8	–
6020 kPa	–	581.6 ± 1
6025 kPa	950.61 ± 0.8	–
6040 kPa	–	581 ± 1
6050 kPa	950.77 ± 0.8	–
6075 kPa	950.93 ± 0.8	–
6100 kPa	951.1 ± 0.8	–
6125 kPa	951.26 ± 0.8	–
6150 kPa	951.39 ± 0.8	–
6175 kPa	951.59 ± 0.8	–
6200 kPa	951.67 ± 0.8	–
6225 kPa	951.86 ± 0.8	–
6250 kPa	952.08 ± 0.8	–
6275 kPa	952.24 ± 0.8	–
6300 kPa	952.33 ± 0.8	–
6325 kPa	952.49 ± 0.8	–
6350 kPa	952.65 ± 0.8	–
6375 kPa	952.82 ± 0.8	–
6400 kPa	952.98 ± 0.8	–
6425 kPa	953.14 ± 0.8	–
6450 kPa	953.31 ± 0.8	–
6475 kPa	953.47 ± 0.8	–
6500 kPa	953.64 ± 0.8	–
6525 kPa	953.73 ± 0.8	–
6550 kPa	953.88 ± 0.8	–
6575 kPa	954.04 ± 0.8	–
6600 kPa	954.21 ± 0.8	–
6625 kPa	954.37 ± 0.8	–
6650 kPa	954.53 ± 0.8	–
6675 kPa	954.7 ± 0.8	–
6700 kPa	954.86 ± 0.8	–
6725 kPa	955.03 ± 0.8	–
6750 kPa	955.19 ± 0.8	–
6775 kPa	955.35 ± 0.8	–
6800 kPa	955.52 ± 0.8	–
6825 kPa	955.67 ± 0.8	–
6850 kPa	955.82 ± 0.8	–
6875 kPa	955.96 ± 0.8	–
6900 kPa	956.09 ± 0.8	–
6925 kPa	956.25 ± 0.8	–
6950 kPa	956.42 ± 0.8	–
6975 kPa	956.58 ± 0.8	–
7000 kPa	956.75 ± 0.8	–
7025 kPa	956.91 ± 0.8	–
7050 kPa	956.99 ± 0.8	–
7075 kPa	957.15 ± 0.8	–
7100 kPa	957.34 ± 0.8	–
7125 kPa	957.48 ± 0.8	–
7150 kPa	957.65 ± 0.8	–
7175 kPa	957.81 ± 0.8	–
7200 kPa	957.97 ± 0.8	–
7225 kPa	958.14 ± 0.8	–
7250 kPa	958.27 ± 0.8	–
7275 kPa	958.38 ± 0.8	–
7300 kPa	958.55 ± 0.8	–
7325 kPa	958.71 ± 0.8	–
7350 kPa	958.87 ± 0.8	–
7375 kPa	959 ± 0.8	–
7400 kPa	959.12 ± 0.8	–
7425 kPa	959.28 ± 0.8	–
7450 kPa	959.45 ± 0.8	–
7475 kPa	959.61 ± 0.8	–
7500 kPa	959.77 ± 0.8	–
7525 kPa	959.94 ± 0.8	–
7550 kPa	960.02 ± 0.8	–
7575 kPa	960.18 ± 0.8	–
7600 kPa	960.35 ± 0.8	–
7625 kPa	960.51 ± 0.8	–
7650 kPa	960.68 ± 0.8	–
7675 kPa	960.84 ± 0.8	–
7700 kPa	960.92 ± 0.8	–
7725 kPa	961.08 ± 0.8	–
7750 kPa	961.25 ± 0.8	–
7775 kPa	961.41 ± 0.8	–
7800 kPa	961.54 ± 0.8	–
7825 kPa	961.66 ± 0.8	–
7850 kPa	961.82 ± 0.8	–
7875 kPa	961.98 ± 0.8	–
7900 kPa	962.15 ± 0.8	–
7925 kPa	962.23 ± 0.8	–
7950 kPa	962.39 ± 0.8	–
7975 kPa	962.56 ± 0.8	–
